Here are results for 5 compounds from patent US7888389B2 (The Regents of the University of Michigan, priority 2002, dated 2011).

The conditions of series [1]: human, in vivo; cited from earlier work.
The conditions of series [2]: in vivo; cited from earlier work.
The conditions of series [3]: cited from earlier work.
For series [4] the following is noted: cited from earlier work. The source holds these as a separate data set.
The test system of another series is breast cancer cells. Kind of series: Human breast cancer xenograft growth in athymic nude mice. The series is classed as in vivo. The method, then: FIG. 5. […] 10^6 breast cancer cells were injected in the mammary fat pad of 4 groups of athymic, nude mice (5 mice per group). Control mice received no treatment.
In this study, 10^6 breast cancer cells were injected in the mammary fat pad of 4 groups of athymic, nude mice (5 mice per group). Control mice received no treatment.

The target of the next series is copper-albumin (Homo sapiens, UniProt P02768). Conditions: in vitro.
copper-albumin, sequence (P02768 25-609): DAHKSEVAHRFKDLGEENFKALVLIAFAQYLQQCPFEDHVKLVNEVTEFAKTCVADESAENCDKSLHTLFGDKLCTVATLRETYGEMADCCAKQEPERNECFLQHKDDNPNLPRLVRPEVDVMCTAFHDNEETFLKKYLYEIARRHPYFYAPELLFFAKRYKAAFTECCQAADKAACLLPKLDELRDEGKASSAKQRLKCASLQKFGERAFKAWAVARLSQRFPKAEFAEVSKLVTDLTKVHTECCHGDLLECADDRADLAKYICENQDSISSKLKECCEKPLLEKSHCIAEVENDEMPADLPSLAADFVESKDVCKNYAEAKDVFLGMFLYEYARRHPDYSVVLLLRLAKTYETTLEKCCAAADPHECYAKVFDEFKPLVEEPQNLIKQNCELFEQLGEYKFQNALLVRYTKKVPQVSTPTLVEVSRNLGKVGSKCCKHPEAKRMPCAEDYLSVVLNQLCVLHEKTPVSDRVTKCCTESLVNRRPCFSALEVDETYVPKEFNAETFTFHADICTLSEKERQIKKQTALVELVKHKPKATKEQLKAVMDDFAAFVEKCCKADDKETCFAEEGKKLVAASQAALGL
The mark [5] stands for this setting: therapeutic dose 1,000-2,000 mg/day.

“Also recorded” adds a separate entry of the source.

With `NC(=O)c1nnn(Cc2cc(Cl)c(C(=O)c3ccc(Cl)cc3)c(Cl)c2)c1N` [CAI, carboxyamidotriazole], the “disease stabilization in cancer patients having progressive disease before treatment” value in series [1] is 49%.
For `CC(C)(S)[C@@H](N)C(=O)O` [penicillamine], the initial hypersensitivity syndrome entry in series [2] is “about a quarter to a third of patients”.
Take `NCCNCCNCCN` [trientine]: the patients with proteinuria result in series [3] (after several weeks of use) is “about 20%”. In addition, in series [3] (setting [5]), the “cupruresis after the first few weeks of therapy” value is 2 to 3 mg and the initial cupruresis is 4 to 5 mg.
In the case of `CC(=O)[O-].CC(=O)[O-].[Zn+2]` [zinc, zinc acetate], in series [4] (150 mg daily, 200 Wilson's disease patients), the toxicity result was “no toxicity at all”. For the same compound, in series [4] (at the two week point), the copper balance induced is −0.35 mg daily. Moreover, in series [4] (in vivo), the “time to bring urine copper and nonceruloplasmin plasma copper to subtoxic levels” value is “as long as six months”; the “time to intestinal metallothionein induction and negative copper balance” value is listed as “approximately two weeks”.
On to “tetrapropylammonium tetrathiomolybdate [TP-TM]”, for which the “tumor growth curves versus control animals” value with breast cancer cells (TM 1 mg/day, TP-TM 1 mg/day and 1.5 mg/day, p<0.01 vs control) was “effectively inhibiting tumor growth”. For the same compound, in the series on breast cancer cells (TP-TM 1 and 1.5 mg/day vs AmmTM 1 mg/day), the “TP-TM tumor growth inhibition compared with TM” value is on record as “indistinguishable from that of AmmTM; also recorded: at least as effective as TM; also recorded: statistically indistinguishable from the TM curves”. Further, the copper-albumin-TM tripartite binding result at copper-albumin is listed as “show the standard copper-albumin-TM tripartite binding”.
